For data set [1], the system named is SMN2 minigene mRNA (SMN2-A minigene) in HEK293H cells. Description: SMN2 minigene mRNA splicing RT-qPCR assay in cultured cells. In kind it is cell-based, human. The following applies: Homo sapiens, HEK293-H; concentration increasing full length SMN2 mRNA 1.5-fold relative to vehicle-treated cells; HEK293H cells with SMN2-A minigene, 24 hours, 7-point concentration data; read-out: EC1.5x for production of full length SMN2 mRNA. The method, boiled down: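 Potency reflects the concentration that lifts full-length SMN2 minigene mRNA 1.5-fold above vehicle in stably transfected HEK293H cells after 24 h of treatment. Transcript abundance came from RT-qPCR as (1+E)^−Ct, normalized to GAPDH; endogenous SMN1/SMN2 are not detected.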
In general terms: Quantitative PCR measures a nucleic acid by following its amplification.

Data set [2] deals with Smn protein in SMA patient fibroblast cells (GM03813). Put plainly: Smn protein assay in cultured cells (SMN HTRF). It is filed as cell-based, human. As to conditions: SMA patient fibroblast cells, 48 hours; for EC1.5x for Smn protein expression: 7-point concentration curve, SMN HTRF, concentration producing 1.5 times Smn protein vs DMSO vehicle control; for maximum fold (Fold) increase of Smn protein: 7-point concentration data, fold relative to vehicle control. The gist of the method:
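Smn protein abundance in treated SMA fibroblasts was measured by HTRF after 48 h compound exposure. The reported EC1.5× is the concentration producing 1.5 times vehicle Smn levels.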

What is called melting point is the temperature, or range, at which the solid turns liquid.

Consider `Cc1cn2cc(-c3cc(=O)n4cc(N5CCNCC5)ccc4n3)cc(CO)c2n1` [Cpd 674, 2-[8-(hydroxymethyl)-2-methylimidazo[1,2-a]pyridin-6-yl]-7-(piperazin-1-yl)-4H-pyrido[1,2-a]pyrimidin-4-one], for which the melting point was above 320 °C. In addition, the EC (1.5-fold increase) in data set [1] was below 0.1 µM. Besides, in data set [2], the “EC1.5x for Smn protein expression” value is given as “**** (an EC1.5x≤0.3 μM is indicated by four stars (****))” and the “maximum fold (Fold) increase of Smn protein” value (“maximum fold (Fold) increase” below) is reported as “***** (a fold increase >1.65 is indicated by five stars (*****))”.
The compound `Cc1cn2nc(-c3cc(=O)n4cc(N5CCNCC5)ccc4n3)cc2c(N(C)C)n1` [Cpd 688, 2-[4-(dimethylamino)-6-methylpyrazolo[1,5-a]pyrazin-2-yl]-7-(piperazin-1-yl)-4H-pyrido[1,2-a]pyrimidin-4-one] came in with a melting point of 245 to 248 °C. In addition, the EC (1.5-fold increase) in data set [1] was in the range of 1 to 3 µM. For the same compound, in data set [2], the “EC1.5x for Smn protein expression” value was “** (an EC1.5× between >1 μM and ≤3 μM is indicated by two stars (**))”; the “maximum fold (Fold) increase” value is “*** (a fold increase between >1.35 and ≤1.5 is indicated by three stars (***))”.
Compound `CCc1nc(C)cn2nc(-c3cc(=O)n4cc(C5CCN(C(CO)CO)CC5)ccc4n3)cc12` [Cpd 694, 7-[1-(1,3-dihydroxypropan-2-yl)piperidin-4-yl]-2-(4-ethyl-6-methylpyrazolo[1,5-a]pyrazin-2-yl)-4H-pyrido[1,2-a]pyrimidin-4-one] registered a melting point of 228 to 230 °C. For the same compound, the EC (1.5-fold increase) in data set [1] was below 0.1 µM. Besides, in data set [2], the “EC1.5x for Smn protein expression” value is “**** (an EC1.5x≤0.3 μM is indicated by four stars (****))” and the “maximum fold (Fold) increase” value is listed as “***** (a fold increase >1.65 is indicated by five stars (*****))”.
In the case of `Cc1cn2cc(-c3cc(=O)n4cc(N5CCNCC5)ccc4n3)cc(C3CC3)c2n1` [Cpd 714, 2-(8-cyclopropyl-2-methylimidazo[1,2-a]pyridin-6-yl)-7-(piperazin-1-yl)-4H-pyrido[1,2-a]pyrimidin-4-one], the melting point fell in the range of 274 to 277 °C. Also, the EC (1.5-fold increase) in data set [1] is below 0.1 µM. For the same compound, in data set [2], the “EC1.5x for Smn protein expression” value is recorded as “**** (an EC1.5x≤0.3 μM is indicated by four stars (****))” and the “maximum fold (Fold) increase” value is given as “***** (a fold increase >1.65 is indicated by five stars (*****))”.
Take `Cc1cn2nc(-c3cc(=O)n4cc(N5CC[C@@H](CN)C5)ccc4n3)cc2c(C)n1` [Cpd 764, 7-[(3S)-3-(aminomethyl)pyrrolidin-1-yl]-2-(4,6-dimethylpyrazolo[1,5-a]pyrazin-2-yl)-4H-pyrido[1,2-a]pyrimidin-4-one]: the melting point was 244 to 246 °C. The EC (1.5-fold increase) in data set [1] was in the range of 1 to 3 µM. In data set [2], the “EC1.5x for Smn protein expression” value was “* (An EC1.5× for Smn protein expression between >3 μM and ≤10 μM is indicated by one star (*))”; the “maximum fold (Fold) increase” value was “*** (a fold increase between >1.35 and ≤1.5 is indicated by three stars (***))”.
The compound `Cc1cn2nc(-c3cc(=O)n4cc(CCCN(C)C)ccc4n3)cc2c(C)n1` [Cpd 769, 7-[3-(dimethylamino)propyl]-2-(4,6-dimethylpyrazolo[1,5-a]pyrazin-2-yl)-4H-pyrido[1,2-a]pyrimidin-4-one] had a melting point of 136 to 138 °C. Further, the EC (1.5-fold increase) in data set [1] lay within 0.1 to 0.3 µM. For the same compound, in data set [2], the “EC1.5x for Smn protein expression” value is “*** (an EC1.5× between >0.3 μM and ≤1 μM is indicated by three stars (***))”; the “maximum fold (Fold) increase” value is listed as “***** (a fold increase >1.65 is indicated by five stars (*****))”.
The compound `Cc1cn2nc(-c3cc(=O)n4cc(C5=C[C@H](C)N[C@@H](C)C5)ccc4n3)cc2c(C)n1` [Cpd 798, 2-(4,6-dimethylpyrazolo[1,5-a]pyrazin-2-yl)-7-[(2S,6S)-2,6-dimethyl-1,2,3,6-tetrahydropyridin-4-yl]-4H-pyrido[1,2-a]pyrimidin-4-one] showed a melting point of 228 to 231 °C. Besides, the EC (1.5-fold increase) in data set [1] was below 0.1 µM. In data set [2], the “EC1.5x for Smn protein expression” value is “**** (an EC1.5x≤0.3 μM is indicated by four stars (****))” and the “maximum fold (Fold) increase” value is reported as “***** (a fold increase >1.65 is indicated by five stars (*****))”.
